This note sets out measurements from patent publication EP0537742B1, “Styrene derivatives” (Mitsubishi Chemical Corporation, priority 1991, dated 1993).

One data set has as its system SKOV3 cell line. The data set is described as follows: Test on cancer cells in tissue culture (proliferation inhibition, MTT). It is filed as cell-based. As to conditions: Homo sapiens, SK-OV-3, 72 h. As to the method: Effect of the test material against the proliferation of cultivated cancer cells was examined with this SKOV3 cell line as follows:
SKOV3 cell was inoculated at a rate of 1 x 10^3 cell/well on a 96 well dish, and cultivated on a DMEM: F12 (1 : 1) medium containing 10% FCS and 0.1 mg/ml kanamycin at 37°C in a stream of 5% carbon dioxide for one day. Test material dissolved in DMSO was added to the medium (final concentration of DMSO was below 0.1%), which was cultivated for 3 days under the conditions mentioned above. Test material was replaced every 24 hours together with the medium.
Counting the number of living cells was effected by making colorimetric analysis at two wave length, 550 nm and 610 nm, in reference to the assaying method as described in Michael C. Alley et al., Cancer Research, 48, 589 (1988) using MTT reagent, and the number obtained was defined as "a".
At the same time, the count of the number of living cells obtained without adding the test material was assayed, and the number obtained was defined as "b".
Cell proliferation inhibitory rate was determined according to the following equation: Inhibitory Rate (%) = (b-a)/b x 100 [formula]

The target in data set [1] is T1, human EGF (epidermal cell growth factor) receptor tyrosine kinase (Homo sapiens, UniProt P00533).
T1 construct: A431 cell membrane fraction, which was provided for the assay as the partially purified EGF receptor, enzyme source; endogenous in cells; host or cells: A431 (human squamous cell carcinoma), crude membrane fraction (27500 x g pellet)
T1 sequence (P00533 25-1210): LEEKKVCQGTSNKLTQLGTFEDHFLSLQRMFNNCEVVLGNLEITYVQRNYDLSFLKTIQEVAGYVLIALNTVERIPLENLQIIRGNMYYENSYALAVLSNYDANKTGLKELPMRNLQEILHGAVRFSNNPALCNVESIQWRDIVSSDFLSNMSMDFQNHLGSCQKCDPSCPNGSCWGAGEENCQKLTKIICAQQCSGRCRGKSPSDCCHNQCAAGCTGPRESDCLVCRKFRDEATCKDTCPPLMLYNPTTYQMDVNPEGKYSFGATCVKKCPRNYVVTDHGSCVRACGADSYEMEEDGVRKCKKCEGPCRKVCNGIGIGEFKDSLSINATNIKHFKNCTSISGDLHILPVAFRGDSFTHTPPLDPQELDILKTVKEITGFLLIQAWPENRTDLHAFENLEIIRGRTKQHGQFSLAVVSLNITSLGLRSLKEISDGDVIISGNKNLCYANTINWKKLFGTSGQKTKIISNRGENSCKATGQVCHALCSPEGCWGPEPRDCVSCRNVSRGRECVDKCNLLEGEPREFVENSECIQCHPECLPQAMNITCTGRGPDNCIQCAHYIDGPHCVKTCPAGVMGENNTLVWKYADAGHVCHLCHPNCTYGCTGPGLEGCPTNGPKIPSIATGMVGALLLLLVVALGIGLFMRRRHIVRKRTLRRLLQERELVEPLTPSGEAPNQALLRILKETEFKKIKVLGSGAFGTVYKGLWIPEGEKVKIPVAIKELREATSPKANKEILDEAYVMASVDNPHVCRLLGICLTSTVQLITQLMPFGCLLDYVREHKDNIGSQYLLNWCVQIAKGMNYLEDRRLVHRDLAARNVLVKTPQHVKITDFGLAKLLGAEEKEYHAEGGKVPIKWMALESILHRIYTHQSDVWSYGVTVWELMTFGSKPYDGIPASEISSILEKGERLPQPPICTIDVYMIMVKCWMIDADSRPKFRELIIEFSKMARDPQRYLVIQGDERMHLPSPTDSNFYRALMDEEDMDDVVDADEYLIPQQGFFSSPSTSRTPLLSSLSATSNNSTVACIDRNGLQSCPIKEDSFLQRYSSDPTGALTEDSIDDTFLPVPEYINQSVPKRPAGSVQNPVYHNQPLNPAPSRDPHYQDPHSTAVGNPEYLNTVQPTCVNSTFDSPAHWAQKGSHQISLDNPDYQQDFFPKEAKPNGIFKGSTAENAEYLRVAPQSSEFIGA
T1 sequence (P01133 971-1023 partner limits assumed): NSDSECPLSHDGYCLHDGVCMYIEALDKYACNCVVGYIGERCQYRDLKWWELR
As to the kind of experiment: Tyrosine kinase activity inhibition (partially purified EGF receptor from A431 cell membrane fraction, RR-SRC peptide, 32P-ATP). As to conditions: for inhibition at 10 µM: read-out: Inhibitory Rate (%) in the presence of 10 µM; for inhibition at 1 µM: read-out: Inhibitory Rate (%) in the presence of 1 µM. It is filed as biochemical. As to the method: Detailed explanation of the assaying method will be given below.
A431 cells were cultivated in Dulbecco's modified Eagle's medium (DMEM) containing 10% fetal calf serum (FCS) at 37°C in a stream of 5% carbon dioxide, and the resultant cells were homogenized in a solution containing 10 mM N-2-hydroxyethylpiperazino-N'-2-ethanesulfonic acid (Hepes) buffer (pH 7.4), 0.25M sucrose and 0.1 mM EDTA and centrifuged at 1000 g for 5 minutes.
At that time the volume was 60 µl. The reaction was allowed to perform in ice for 30 minutes and stopped by adding 10 mg/ml bovine serum albumin (6 µl) and 20% trichloroacetic acid (25 µl). The mixture was allowed to stand in ice for 30 minutes.
Then the mixture was centrifuged at 5000 x g for 2 minutes, and the supernatant (40 µl) was sampled and adsorbed on P81 phosphocellulose paper. […] The count obtained was defined as "A". At the same time, counts of the reaction not containing the test material and the reaction not containing both the test material and EGF were assayed, and the resulted counts were defined as "B" and "C" respectively.

Data set [2] in a line: Toxicity test, intraperitoneal administration. The class given is in vivo, Mouse ddy (male). The procedure: Toxicity test for the compounds of the present invention was examined in the manner as shown below. Test compound Compound No. 4 Test animal Mouse ddy (male) 16 - 20 g
Test compound was suspended in a mixture of 0.25% carboxymethyl cellulose, physiological saline, and a small amount of Tween 80 to give a test solution. This solution was administered intraperitoneally at dose of 0 mg/kg (control), 500 mg/kg and 1000 mg/kg to the test animal. Change of the body weight was measured 3 days later.

The mark [3] stands for this setting: Table 5: Proliferation Inhibitory Effect Against Cultivated Cells, 3 days, read-out: IC50.
Setting [4] is: Tyrosine Kinase Activity Inhibitory Effect, test material 10 µM.

The structures appear in SMILES notation. Like-named read-outs stand apart in the source and are kept apart here.

Consider `COc1cc(C=C(C#N)C(=O)Nc2ccccc2)cc(Cl)c1O` [Compound No. 1, 2-cyano-3-(3-chloro-4-hydroxy-5-methoxyphenyl) propeneanilide], for which the IC50 in the data set on SKOV3 cell line (setting [3]) was 17.3 µM. Moreover, the inhibition at 10 µM in data set [1] came to 63%.

In the case of `N#CC(=Cc1cc(O)c(O)c(Cl)c1)C(=O)Nc1ccccc1` [Compound No. 2, 2-cyano-3-(3-chloro-4,5-dihydroxyphenyl)propenanilide], the IC50 in the data set with SKOV3 cell line (setting [3]) amounted to 20.4 µM. Besides, the inhibition at 10 µM in data set [1] was 74%.

With `N#CC(=Cc1cc(O)c(O)c(Cl)c1)C(=O)Nc1cccc(Cl)c1` [Compound No. 4, N-(3-chlorophenyl)-2-cyano-3-(3-chloro-4,5-dihydroxyphenyl) propenamide], the half-inhibitory concentration (IC50) in the data set with SKOV3 cell line (setting [3]) came to 21.6 µM. Also, the dead case entry in data set [2] (500 mg/kg intraperitoneally) and in data set [2] (1000 mg/kg intraperitoneally) was “No dead case was observed” throughout.

`N#CC(=Cc1cc(O)c(O)c(Br)c1)C(=O)Nc1cccc(Cl)c1` [Compound No. 6, N-(3-chlorophenyl)-2-cyano-3-(3-bromo-4,5-dihydroxyphenyl) propenamide]: in the data set on SKOV3 cell line (setting [3]), the half-inhibitory concentration (IC50) is 21 µM.

With `COc1cc(C=C(C#N)C(=O)Nc2cccc(Cl)c2)cc(F)c1O` [Compound No. 7, N-(3-chlorophenyl)-2-cyano-3-(3-fluoro-4-hydroxy-5-methoxyphenyl) propenamide], in data set [1], the inhibition at 1 µM turned out to be 41%.

Turning to `N#CC(=Cc1cc(O)c(O)c(F)c1)C(=O)Nc1cccc(Cl)c1` [Compound No. 8, N-(3-chlorophenyl)-2-cyano-3-(3-fluoro-4,5-dihydroxyphenyl) propenamide], the half-inhibitory concentration (IC50) in the data set on SKOV3 cell line (setting [3]) stood at 23.4 µM. For the same compound, in data set [1], the inhibition at 1 µM turned out to be 78%.

Turning to `N#CC(=Cc1cc(O)c(O)c(Br)c1Br)C(=O)Nc1cccc(Cl)c1` [Compound No. 9, N-(3-chlorophenyl)-2-cyano-3-(2,3-dibromo-4,5-dihydroxyphenyl) propenamide], the IC50 in the data set on SKOV3 cell line (setting [3]) was 17 µM.

For `N#CC(=Cc1ccc(O)c(O)c1)C(=O)Nc1ccc(Br)cc1` [Compound No. 10, N-(4-bromophenyl)-2-cyano-3-(3,4-dihydroxyphenyl) propenamide], the inhibition at 10 µM in data set [1] (setting [4]) came out at 47%.

`N#CC(=Cc1ccc(O)c(O)c1)C(=O)Nc1cccc(Br)c1` [Compound No. 11, N-(3-bromophenyl)-2-cyano-3-(3,4-dihydroxyphenyl) propenamide]: in data set [1] (setting [4]), the inhibition at 10 µM is 77%.

With `N#CC(=Cc1ccc(O)c(O)c1)C(=O)Nc1ccc(Cl)cc1` [Compound No. 12, N-(4-chlorophenyl)-2-cyano-3-(3,4-dihydroxyphenyl) propenamide], the inhibition at 10 µM in data set [1] (setting [4]) was determined as 52%.

Turning to `N#CC(=Cc1ccc(O)c(O)c1)C(=O)Nc1cccc(Cl)c1` [Compound No. 13, N-(3-chlorophenyl)-2-cyano-3-(3,4-dihydroxyphenyl) propenamide], the IC50 with SKOV3 cell line (setting [3]) was found to be 30 µM. Besides, in data set [1], the inhibition at 1 µM came out at 46% and the inhibition at 10 µM came to 100%.

Consider `Cc1cccc(NC(=O)C(C#N)=Cc2ccc(O)c(O)c2)c1` [Compound No. 14, N-(3-methylphenyl)-2-cyano-3-(3,4-dihydroxyphenyl) propenamide], for which, in data set [1], the inhibition at 10 µM was 77%.

As for `N#CC(=Cc1cc(O)c(O)c(C#N)c1)C(=O)Nc1cccc(Cl)c1` [Compound No. 15, N-(3-chlorophenyl)-2-cyano-3-(3-cyano-4,5-dihydroxyphenyl) propenamide], the IC50 with SKOV3 cell line (setting [3]) was determined as 34 µM.

With `N#CC(=Cc1cc(O)c(O)cc1[N+](=O)[O-])C(=O)Nc1cccc(Cl)c1` [Compound No. 16, N-(3-chlorophenyl)-2-cyano-3-(4,5-dihydroxy-2-nitrophenyl) propenamide], the half-maximal inhibitory concentration (IC50) in the data set with SKOV3 cell line (setting [3]) came to 24 µM.

`N#CC(=Cc1cc(O)c(O)c(C(F)(F)F)c1)C(=O)Nc1cccc(Cl)c1` [Compound No. 98, N-(3-chlorophenyl)-2-cyano-3-[3,4-dihydroxy-5-(trifluoromethyl)phenyl] propenamide]: the half-maximal inhibitory concentration (IC50) in the data set with SKOV3 cell line (setting [3]) is 16 µM.

As for `N#CC(C(=O)Nc1ccccc1)=C(O)c1ccc(O)c(O)c1` [Compound No. 119, 2-cyano-3-hydroxy-3-(3,4-dihydroxyphenyl) propenanilide], the IC50 in the data set on SKOV3 cell line (setting [3]) was 24 µM.

In the data set on SKOV3 cell line, `N#CC(=Cc1ccc(O)c(O)c1)C(=O)Nc1ccccc1` [Reference 1), reference compound] showed an IC50 of 35 µM.

As for `CCOc1cc(C=C(C#N)C(N)=O)cc(CSc2ccccc2)c1O` [Reference 2), reference compound], in the data set with SKOV3 cell line (setting [3]), the IC50 is 78 µM.

For `O=CNC=Cc1ccc(O)c(O)c1` [Reference 3), reference compound], the concentration for half-maximal inhibition (IC50) in data set [1] (Table 3, tyrosine kinase inhibition) was determined as 12 µM.

As for `N#CC(=Cc1cc(Br)c(O)c(Br)c1)C(=O)Nc1cccc(Cl)c1` [compound 100], the IC50 with SKOV3 cell line (setting [3]) was 19 µM.

Take `COc1cc(C=C(C#N)C(=O)Nc2ccccc2)cc(Br)c1O` [compound 105]: the IC50 in the data set with SKOV3 cell line (setting [3]) amounted to 13 µM.

As for `Cc1cc(C=C(C#N)C(=O)Nc2cccc(Cl)c2)cc(O)c1O` [compound 110], the IC50 in the data set on SKOV3 cell line (setting [3]) is 14 µM.

What is called IC50 is the concentration needed to halve the response being measured.
